# Laboratory results published in US20250082646A1, “OVARIAN ANTI-AGING PHARMACEUTICAL COMPOSITION AND USE THEREOF” (priority 2022, published 2025).
# Legend:
# [1] = tested on: mouse ovaries stimulated with PMSG; experiment: Histology (hematoxylin and eosin) of ovaries after PMSG stimulation in vivo: number of ovarian follicles; settings: treated ovaries compared to the ovaries of the control; after hormonal stimulation; FIG. 1A
# Description: In this experiment, as a control, young mice (7 to 9 weeks old, n=15), and as an experimental group, old mice (55 to 60 weeks old, n=30) were prepared. In the drawing, the experimental results of the young mice are indicated as ‘Young,’ and the experimental results of the old mice are indicated as ‘Old.’
# (§1) For in vivo hormone stimulation, the old mice were treated with the Example compound, and 12 hours later, 75 IU pregnant mare serum gonadotropin (PMSG: RP1782725000; BioVendor, Czech Republic) was injected into the mice. A control is a group administered only 751U PMSG. Female mice were superovulated by injecting hormones intraperitoneally at intervals of 48 hours. The administered hormones were PMSG (7.5 IU) and human chorionic gonadotropin (hCG: 668900221; LG Chem. Seoul, Korea: 7.5 IU). After secondary hormone treatment, female mice were mated with male mice (2:1 or 1:1). Modified pronuclear cells (2PNs) were obtained 24 hours after hCG injection.
# In Experimental Example 1, the effect of treatment with Example Compound on mouse ovaries stimulated with PMSG in vivo was evaluated. Light microscopy imaging was performed on the ovaries of young mice, and old mice treated and not treated with Example Compound.
# Each sample was fixed with 4% paraformaldehyde at room temperature for 30 minutes, and the fixed tissue was washed with PBS and embedded in paraffin with a thickness of 5 μm. […]
# old ovaries (GV oocytes) = experiment: Number of GV oocytes collected from ovaries after superovulation; format: in vivo, mouse; settings: old ovaries treated vs old ovaries not treated; FIGS. 1B and 1C
# Description: Female mice (young mice: 7-8 weeks old; old mice: 40 weeks or older) were superovulated by intraperitoneally injecting pregnant mare serum gonadotropin (PMSG: G4527, Sigma Aldrich: 7.5 IU). Germinal vesicle (GV) oocytes were collected from the ovaries 48 hours after PMSG injection. For zygotes, female mice were injected with PMSG, and 48 hours later, injected with hCG, and then placed overnight with BDF1 stud male mice, which were approximately 10 to 12 weeks old. The next day, plugs of the female mice were examined, and zygotes and two-cell embryos were collected from the oviducts 18 to 20 hours and 36 hours after hCG injection, respectively.
# After inducing superovulation, the numbers of GV oocytes in the ovaries of the old mice and young mice treated with Example Compound were evaluated.
# The measurement of the number of GV oocytes was performed by collecting mouse eggs from each group (the number of eggs of young mice: 15: the number of eggs of old mice: 30; and the number of eggs of old mice treated with Example Compound: 30), physically chopping the eggs to collect ovarian follicles, and isolating GV oocytes in the ovarian follicles to count the number of cells.
# [2] = tested on: fertilized 2PN embryos of old mice; experiment: Pre-implantation development of fertilized 2PN embryos from treated old mice; format: in vivo, mouse
# Description: as §1
# In Experimental Example 2, the effect of fertilized 2PN embryo development on the ovaries of the old mice treated with Example Compound was evaluated.
# 27 pronuclear cells of the old mice (n=15) treated with Example Compound and 62 pronuclear cells of the old mice (n=15) not treated with Example Compound as a control were cultured. Afterward, the number of cells at each of 2-cell, 4-cell, 8-cell, morula, early blastocyst, and late blastocyst stages was measured using a microscope, and expressed as a percentage.
# ovaries of old mice = experiment: Ovarian gene expression pattern by next generation sequencing (mRNA sequencing); format: in vivo, mouse; settings: NGS; genes increased in the old group
# Description: A major change in gene expression caused by treatment with Example Compound was confirmed through next generation sequencing (NGS).
# mRNA sequencing was performed according to References. RNA was extracted using a TRIzol (15596026. Thermo Fisher) solution. Sequencing libraries were prepared according to the manufacturer's instructions using the TruSeq Stranded mRNA LT Sample Prep Kit (Illumina). Paired end 101 bp sequencing was performed using the Illumina platform (NovaSeq 6000, Illumina). The results of two experiments were obtained for each group.
# According to the criteria (1st trimming, base quality<3, window size=4, mean quality=15; 2nd trimming: min length=36 bp), paired end read data was trimmed using Trimmomatic (Bolger et al., 2014). Using the HISAT2 program (Kim et al., 2019; Nat Biotechnol 37, 907-915, 2019), trimmed reads were mapped to the UCSC genome database. Also, the mapping results were quantified using StringTie (Pertea et al., 2015; Nat Biotechnol. 2015 March; 33(3): 290-295) and gene/transcript-based annotations (NCBI Annotation Release 108).
# Differential expression gene analysis was performed using DESeq2 according to the criteria (baseMean counts>14, false discover rate (FDR)<0.1, and log 2FoldChange>1). […]
# [3] = tested on: Ptpn6, Fcer1g, Tyrobp, Slamf9, Clec4a3 mRNA; experiment: RT-qPCR of immune system regulatory genes (tumor necrosis factor superfamily cytokine production) in ovaries; format: in vivo, mouse; settings: old experimental group treated, FIG. 3B
# Description: In this experiment, a change in the expression of immune system regulatory genes (genes involved with tumor necrosis factor superfamily cytokine production) was quantitatively evaluated using real-time quantitative PCR (RT-qPCR) according to the treatment of aged models with Example Compound.
# RT-qPCR was performed on each ovary using the TRIzol protocol, total RNA was extracted from a lysate using the RNeasy mini kit (Qiagen Ltd.), and the extracted total RNA was reverse-transcribed using a Superscript kit (Invitrogen) containing a random hexamer to synthesize cDNA.
# Gene expression levels were confirmed using primers and the SsoAdvanced Universal SYBR Green Supermix (Bio-Rad. US) in the CFX96 Touch Real-Time PCR detection system (Bio Rad, US).
# For each gene tested, a comparative threshold cycle (CT) method that normalizes the accumulated PCR product to the reference gene beta-actin was used, and repeated three times.
# The PCR product was loaded on a 2% agarose gel and stained with Safeview™ (Applied Biological Materials. Richmond, Canada), and the gel was visualized under UV light using a gel documentation system (WSE-6100 LuminoGraph; ATTO, Tokyo, Japan), and the product bands were analyzed by the analysis of intensity ratios using ImageJ software.
# [4] = tested on: longevity-related genes, steroidogenesis-related genes, primordial follicle factors, ovarian function factors; experiment: RT-PCR of ovarian function-related genes in ovaries of old mice; format: in vivo, mouse
# Description: The expression of ovarian function-related genes in the ovaries of old mice treated with Example Compound was confirmed by reverse transcription-polymerase chain reaction (RT-PCR).
# mRNA was extracted from oocytes using a TRIzol (TRIzol RNA, 15596026, Thermo Fisher) solution and subjected to RT-PCR. The PCR product was stained with SafeView™ (Applied Biological Materials, Richmond, Canada) and loaded on a 2% agarose gel. Additionally, the gel was visualized under UV light using a gel documentation system (WSE-6100 LuminoGraph; ATTO, Tokyo, Japan). The intensity ratios of the product bands were analyzed using the ImageJ software program.
# The expression of primordial follicle factors, such as Nanog, Oct3/4, and p63, and ovarian function factors, such as AMH and BMP15, in the ovaries of the mice treated with Example Compound were analyzed by RT-PCR.
# In FIGS. 4A and 4B, “Young” indicates a young mouse, “Old” indicates an old mouse, and “Old+Compound 1” indicates an old mouse treated with Example Compound.
# In FIG. 4A, the upper left box indicates longevity-related genes, the lower left box indicates steroidogenesis-related genes, the upper right box indicates primordial follicle factors, and the lower right box indicates ovarian function factors.
# [5] = old mice treated, 27 pronuclear cells cultured
# [6] = old mice treated vs old mice not treated
smiles,measurement,setting,value
"O=S1(=O)CCN(Cc2cc(NC3CCOCC3)c3[nH]c(-c4ccccc4)cc3c2)CC1 [Example Compound, 5-[(1,1-dioxido-4-thiomorpholinyl)methyl]-2-phenyl-N-(tetrahydro-2H-pyran-4-yl)-1H-indol-7-amine]","total number of ovarian follicles, including preantral follicles and antral follicles",[1],significantly higher
same,total number of oocytes collected at the GV stage,old ovaries (GV oocytes),significantly higher
same,embryo development rate higher than that of the control embryo,"[2]; at the morula, early blastocyst, and late blastocyst stages, old mice, FIG. 2",20%
same,early blastocyst rate,[2]; [5],51.85%
same,embryo development rate at the morula stage,[2]; [5],55.56%
same,late blastocyst rate,[2]; [5],51.85%
same,"expression of Fcerlg, Slamf9, Clec4a3, Ptpn6, Tyrobp, Adipoq, Bcl3, Trem2, and Sash3 (TNF superfamily cytokine production DEGs)",ovaries of old mice,down-regulated
same,"mRNA expression levels of Ptpn6, Fcerlg, Tyrobp, Slamf9, and Clec4a3",[3],lowered to levels similar to those of the young control
same,expression levels of SOD2 and SIRT1 (longevity-related genes),[4]; [6],higher
same,"expression levels of steroid production-related genes Edn2, Tbxa2r, Oxtr, and Adra1d",[4]; [6],significantly increased
same,"mRNA expression of Oct3/4, Nanog, p63, Lhcgr, AMH, GDF9, BMP15, and Kid","[4]; treated vs control not treated, FIGS. 4A and 4B",significantly higher
